IC50 data for six compounds are collected here from ChEMBL document CHEMBL1133380, “3-Imidazolylmethylaminophenylsulfonyltetrahydroquinolines, a novel series of farnesyltransferase inhibitors” (Bioorg Med Chem Lett, 2000).

Structures are written as SMILES.

The test addresses Protein farnesyltransferase (Homo sapiens, UniProt P49354+P49356). In words: Inhibition of Farnesyltransferase. Type of test: protein-complex assay.

Compound `CSCC[C@H](NC(=O)[C@@H]1Cc2ccccc2CN1C(=O)[C@@H](NCCc1cnc[nH]1)C(C)C)C(=O)O` had an IC50 of 0.8 nM. Compound `O=S(=O)(c1cccc(N(Cc2cnc[nH]2)Cc2cnc[nH]2)c1)N1CCCc2ccccc21` showed an IC50 of 130 nM. For `O=S(=O)(c1cccc(NCc2cnc[nH]2)c1)N1CCCc2ccccc21`, the IC50 amounted to 15000 nM.

Consider `CCCCOc1ccc(S(=O)(=O)N2CCCc3ccccc32)cc1N(Cc1cnc[nH]1)Cc1cnc[nH]1`, for which half-maximal inhibition (IC50) was put at 480 nM. Against the preceding compound, the IC50 is about 31-fold lower. With `CSCC[C@H](NC(=O)[C@@H]1Cc2ccccc2CN1C(=O)[C@@H](NC[C@@H](N)CS)C(C)C)C(=O)O`, 0.6 nM corresponded to half-maximal inhibition (IC50).

`N#Cc1cccc(CN(Cc2c[nH]cn2)c2cccc(S(=O)(=O)N3CCCc4ccccc43)c2)c1` had an IC50 of 570 nM.
